The nature of the series: Solubility stated in words. Format: physicochemical.
For `N=C(N)SCCS(=O)(=O)O` [Comparative test E], the “solubility (in words)” value was “highly soluble”.

Turning to `N=C(N)SCCCS(=O)(=O)O` [Comparative test F], the “solubility (in words)” value was “less soluble”. For the compound `N=C(N)SCCCCS(=O)(=O)O` [Comparative test G], the “solubility (in words)” value was “less soluble”.

Take `CC(CCSC(=N)N)S(=O)(=O)O` (stereo not shown) [Comparative test H]: the “solubility (in words)” value was “less soluble”.

(Values after patent publication US5126227A, “High contrast photographic elements containing ballasted hydrophobic isothioureas” (priority 1990, dated 1992).)
